According to PubChem BioAssay (NCI):
Values joined by “and” are separate entries in the source; they are usually repeats but may differ in a detail not shown here. Identical values can stand only once.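 Cultured in 96-well plates, cells were exposed to test compound for 48 hours across five concentrations. The concentration for 50% growth inhibition is given as GI50. At the TGI there is no net growth.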

What was measured:
Experiment in all cases: growth of human tumour cells (NCI), 48 h
SR leukemia = system: SR leukemia
OVCAR-4 ovarian = system: OVCAR-4 ovarian
A549 NSCLC = system: A549 NSCLC
IGROV1 ovarian = system: IGROV1 ovarian
HT29 colon = system: HT29 colon
EKVX NSCLC = system: EKVX NSCLC
MALME-3M melanoma = system: MALME-3M melanoma
K-562 leukemia = system: K-562 leukemia
CCRF-CEM leukemia = system: CCRF-CEM leukemia
CAKI-1 renal = system: CAKI-1 renal

SMILES	TGI (SR leukemia) [µM]	TGI (OVCAR-4 ovarian)	TGI (A549 NSCLC)	TGI (IGROV1 ovarian) [µM]	TGI (HT29 colon) [µM]	TGI (EKVX NSCLC)	TGI (MALME-3M melanoma) [µM]	TGI (K-562 leukemia)	TGI (CCRF-CEM leukemia)	TGI (CAKI-1 renal)	GI50 (CCRF-CEM leukemia)	GI50 (SR leukemia) [nM]	GI50 (OVCAR-4 ovarian)	GI50 (A549 NSCLC) [µM]	GI50 (IGROV1 ovarian) [µM]	GI50 (CAKI-1 renal) [µM]	GI50 (HT29 colon) [µM]	GI50 (EKVX NSCLC)	GI50 (K-562 leukemia) [µM]	GI50 (MALME-3M melanoma) [µM]
CC(=O)N1C(=O)C(=O)c2cc(Cl)ccc21	> 100	> 100 µM	> 100 µM	> 100	> 100	> 100 µM	> 100	> 100 µM												
CCC1N2CCCCC2[C@@H]2c3[nH]c4ccccc4c3CCN12 (some centres not stated)		> 100 µM	> 100 µM	> 100	> 100	> 100 µM	> 100	> 100 µM	> 100 µM	> 100 µM										
NCC(=O)OCN1C(=O)C2C3C=CC(C2C1=O)C1C2C(=O)N(COC(=O)CN)C(=O)C2C31 (configuration not stated)		39.1 µM and 55.4 µM	63.7 µM and 60.6 µM	> 100	> 100	> 100 µM		60.9 µM and > 100 µM	52.6 µM and 49.8 µM	> 100 µM										
COc1ccccc1NC(=O)N/C(N)=N/c1nc2ccccc2s1	> 100	> 100 µM	> 100 µM	> 100	> 100	> 100 µM		> 100 µM	> 100 µM	> 100 µM	0.111 µM	22.8	0.218 µM	0.107	0.0884	0.062	0.0389	0.409 µM	0.0351	
COc1cccc(NC(=O)c2ccc(C(F)(F)F)nc2Nc2ccc(Cl)cc2C)c1		28.6 µM	22.4 µM	22.2	22.1	24.2 µM		38.8 µM	34.4 µM	17.1 µM	11.1 µM		14.9 µM	10.6	10.5	2.76	10.2	10.2 µM	13.9	
C=CCCC12CCCC(=O)C1Sc1ccc3ccccc3c12 (configuration not stated)		> 100 µM	24.5 µM	> 100	67.2	64.2 µM	52.7	> 100 µM	53.8 µM	26.4 µM										
COc1cc2c(C#N)n3c(c2cc1OC)C(=O)C(c1ccccc1)Oc1ccccc1-3 (configuration not stated)	> 100	> 100 µM	> 100 µM	> 100			> 100	> 100 µM	8.51 µM		2.72 µM	2580	2.89 µM	2.87	7.41				3.08	> 100
CCCCCCCCCCSS(=O)(=O)c1ccc(C)cc1	27.8	32 µM	29.8 µM	33.7	23.9	27 µM	31.3	46.8 µM		31.2 µM										
CC(=O)[CH-]C(=O)c1ccccc1.CC(=O)[CH-]C(=O)c1ccccc1.CC(C)CCCC(C)[C@H]1CCC2[C@@H]3CCC4C[C@@H]([O-])CC[C@]4(C)C3CC[C@@]21C.CC(C)CCCC(C)[C@H]1CCC2[C@@H]3CCC4C[C@@H]([O-])CC[C@]4(C)C3CC[C@@]21C.Cl.[Ti+4] (some centres not stated)		> 25 µM	> 25 µM	> 25	> 25	> 25 µM	> 25	> 25 µM	> 25 µM	> 25 µM	> 25 µM		> 25 µM	> 25	> 25	> 25	> 25	> 25 µM	> 25	8.93
O=C(Oc1ccccc1Cl)c1cccnc1Nc1ccnc(C(F)(F)F)c1		95.8 µM	> 100 µM	30.4	71.5	84.3 µM	41.1	27.6 µM	6.52 µM	50 µM	2.4 µM		27.8 µM	30.2	10.7	23.1	25.3	32.6 µM	4.61	8.29
CC(C)[C@H](COC(C)(C)C)N=CN1CSc2ccccc21		> 100 µM	> 100 µM	> 100	> 100	> 100 µM		> 100 µM	> 100 µM											
COc1cc(/C=C\c2cc(/C=C\c3ccc(O)c(OC)c3)n(C(=O)Nc3ccc(C(F)(F)F)cc3)n2)ccc1O	> 100	52.7 µM	> 100 µM	11.6	4.13	38.4 µM	8.4	> 100 µM		12.7 µM		1480	3.51 µM	4.11	2.77	3.02	2.02	3.22 µM	2.53	2.89
COc1ccc2c(CCNS(=O)(=O)c3ccccc3)c(C(C)=O)[nH]c2c1[N+](=O)[O-]	> 100	> 100 µM	> 100 µM	> 100	> 100			> 100 µM	> 100 µM											
Cn1c(-c2c(N)n(Cc3ccc(Cl)cc3)c3nc(C#N)c(C#N)nc23)nc2ccccc21	> 50	18.6 µM	19.8 µM	7.71		46.1 µM		> 50 µM		18.7 µM		8260	3.89 µM	5.02	1.54	7.15		7.04 µM	17.3	
Cc1ccc(S(=O)(=O)NC(C)C(=O)O)cc1 (configuration not stated)		> 100 µM	> 100 µM	> 100	> 100	> 100 µM	> 100	> 100 µM	> 100 µM	> 100 µM	47.2 µM and > 100 µM								> 100	
COC(=O)c1c(C(=O)OC)c(C(=O)OC)c(C(=O)OC)c1C(=O)OC		> 100 µM	> 100 µM	> 100	> 100	> 100 µM	> 100	> 100 µM	> 100 µM	> 100 µM										
CCN(CC)CCNc1ccc(CO)c2sc3ccccc3c(=O)c12		18.9 µM [middle of 4 runs]	13.6 µM and 21.4 µM and 18.2 µM			28.7 µM [middle of 4 runs]				26.4 µM [middle of 4 runs]		2290	2.49 µM and 7.63 µM	3.2		3.03		3.92 µM and 16.2 µM		
